Measurements: paper PMC4765733 (Journal of medicinal chemistry, 2015)

Experiments:
[1] = test system: HIV-1ERS104pre (wild type); assay: Antiviral p24 Gag assay in PHA-PBMs, wild-type HIV-1ERS104pre; type: cell-based
[2] = test system: HIV-1LAI; assay: Antiviral MTT assay, MT-2 cells exposed to HIV-1LAI; type: cell-based; conditions: Human immunodeficiency virus 1, MT2, read-out: IC50 (antiviral activity)

Compound | EC50 fold better than APV [1] [fold] | IC50 [2] [nM]
COc1ccc(S(=O)(=O)N(CC(C)C)C[C@@H](O)[C@H](Cc2cccc(-c3ccccc3OC)c2)NC(=O)O[C@H]2CO[C@H]3OCC[C@H]32)cc1 [Inhibitor 21e, (3R,3aS,6aR)-hexahydrofuro[2,3-b]furan-3-yl-((2S,3R)-3-hydroxy-4-(N-isobutyl-4-methoxyphenylsulfonamido)-1-(2'-methoxy-[1,1'-biphenyl]-3-yl)butan-2-yl)carbamate] | ~10 | 
CC(C)CN(C[C@@H](O)[C@H](Cc1ccccc1)NC(=O)O[C@H]1CO[C@H]2OCC[C@H]21)S(=O)(=O)c1ccc(N)cc1 [Darunavir] |  | 3
